This note sets out measurements from US20030114385A1, “Viral enzyme activated prototoxophores and use of same to treat viral infections” (priority 2001, published 2003).

Holding throughout (assay type): cell-based, human
Assay [1] relates to HepG2 (hepatocellular carcinoma cell line). On the procedure:
(§1) IC50 values of various potential HCV ECTA compounds (5761-5768) were determined using CCD 18co (normal colon epithelial cells), Det551 (skin fibroblasts), MCF7TDX (Tomudex resistant breast carcinoma cell line), HepG2 and Hep3B (hepatocellular carcinoma cell lines). Compound 5759 mimics the “released toxin” and serves as a positive control. IC50=the concentration of HCV ECTA compound that inhibits cellular growth by 50%.
(§2) Normal human colon epithelial cells (CCD18co), skin fibroblasts (Det551) Hepatocellular carcinoma cell lines (Hep3B and HepG2), breast cancer cell line (MCF7) and fibrosarcoma cell line (HT1080) were all purchased from the American Type Culture Collection (ATCC; Rockville Md.). MCF7TDX, human breast carcinoma cells resistant to 2 μM Tomudex™ have been described (ref. 98). Cells were cultured at 37° C. in 95% humidified air/5% CO2 in RPMI 1640 culture medium containing 10% fetal calf serum (Life Technologies) and penicillin/streptomycin/fungizone. MCF7TDX cells were maintained continuously in 2 μM Tomudex™. Normal cells were passaged a maximum of 15 times to avoid senescence.
(§3) The cytotoxic activity of various candidate prototoxophores was assessed by determining the IC50 value (concentration that inhibits cellular growth by 50%) in cellular proliferation assays and compared with the results obtained using the 5759 toxophore. Exponentially growing cells were transferred at a density of 1000 to 5500 cells per well to a 96 well tissue culture plate and allowed to attach for 24 hr. HCV ECTA compounds were applied in duplicate half log serial dilutions. After an additional 72 hr incubation, surviving adherent cells were washed once with PBS and stained with 0.5% crystal violet in methanol. Sorenson's buffer (0.025 M sodium citrate, 0.025 M citric acid in 50% ethanol) was added to each well and absorbance at 540 nm was monitored (absorbance at 540 nm correlates with cell survival; see refs. 103 to 105). Semi-adherent or non-adherent cells were stained with CYQUANT stain according to the protocol provided with the cell proliferation assay kit (C-7026; Molecular Probes; Eugene Oreg.). Fluorescence (485 nm excitation, 535 nm emission) was monitored. IC50 values were derived from sigmoid curves fit according to the Hill inhibitory Emax model (ref. 106).
(§4) Cells were treated with compounds 5759, 5762 or 5763 for 15 hours. After removal of the compounds, the cells were washed, incubated for a total of 72 hours and IC50 values were determined. IC50=the concentration of HCV ECTA compound that inhibits cellular growth by 50%.

In assay [2] the test system is CCD18co (normal colon epithelial cells). As for the experimental part: as §1, §2, §3, §4
The test system of assay [3] is Det551 (skin fibroblasts). On the procedure:
as §1, §2, §3
(§5) Det551 or MCF7TDX cells were treated with compounds 5759, 5761, 5763 and 5767 for 2, 6, 12, 24 and 72 hours. After the indicated times the compounds were removed, the cells were washed, incubated for a total of 72 hours and IC50 values were determined. IC50=the concentration of HCV ECTA compound that inhibits cellular growth by 50%.
as §4

Assay [4] concerns MCF7TDX (Tomudex resistant breast carcinoma cell line). On the procedure:
as §1, §2, §3, §5, §4

For assay [5], the system named is Hep3B (hepatocellular carcinoma cell line). As for the experimental part: as §1, §2, §3, §4
[6] abbreviates: HepG2, 72 hr incubation, read-out: IC50 (concentration that inhibits cellular growth by 50%).
Setting [7] is: 72 hr incubation, read-out: IC50 (concentration that inhibits cellular growth by 50%).
The mark [8] stands for this setting: Det551, 2 h exposure, washed, total 72 hours, read-out: IC50 after various times of drug exposure.
[9] abbreviates: Det551, 6 h exposure, washed, total 72 hours, read-out: IC50 after various times of drug exposure.
Setting [10] is: Det551, 12 h exposure, washed, total 72 hours, read-out: IC50 after various times of drug exposure.
Where [11] appears, read: MCF7/TDX, 2 h exposure, washed, total 72 hours, read-out: IC50 after various times of drug exposure.
Where [12] appears, read: MCF7/TDX, 6 h exposure, washed, total 72 hours, read-out: IC50 after various times of drug exposure.
Setting [13] is: MCF7/TDX, 12 h exposure, washed, total 72 hours, read-out: IC50 after various times of drug exposure.
The mark [14] stands for this setting: MCF7/TDX, 24 h exposure, washed, total 72 hours, read-out: IC50 after various times of drug exposure.
Setting [15] is: MCF7/TDX, 72 h exposure, read-out: IC50 after various times of drug exposure.
[16] abbreviates: HepG2, 15 hours exposure, washed, total 72 hours, read-out: IC50 after 15 hour of drug exposure.
[17] abbreviates: 15 hours exposure, washed, total 72 hours, read-out: IC50 after 15 hour of drug exposure.
The mark [18] stands for this setting: Det551, 15 hours exposure, washed, total 72 hours, read-out: IC50 after 15 hour of drug exposure.
Where [19] appears, read: MCF7TDX, 15 hours exposure, washed, total 72 hours, read-out: IC50 after 15 hour of drug exposure.
The mark [20] stands for this setting: Det551, 24 h exposure, washed, total 72 hours, read-out: IC50 after various times of drug exposure.
Setting [21] is: Det551, 72 h exposure, read-out: IC50 after various times of drug exposure.
Setting [22] is: Det551, 72 hr incubation, read-out: IC50 (concentration that inhibits cellular growth by 50%).
The mark [23] stands for this setting: MCF7TDX, 72 hr incubation, read-out: IC50 (concentration that inhibits cellular growth by 50%).

Values joined by “and” are separate entries in the source; they are usually repeats but may differ in a detail not shown here. Equal values may be shown once. Read-outs that look alike come from different tables or passages of the source. Square brackets hold non-standard residues; d marks the D form. Peptide text beside a SMILES is read from it. * marks the point of attachment. NH(4-NH2-anthraquinon-1-yl) = Nc1ccc(N*)c2c1C(=O)c1ccccc1C2=O; Cha = N[C@@H](CC1CCCCC1)C(=O)O; Abu = CC[C@H](N)C(=O)O

With `CC(=O)N[C@@H](CC(=O)O)C(=O)N[C@@H](CCC(=O)O)C(=O)N[C@H](C(=O)N[C@H](C(=O)N1CCC[C@H]1C(=O)N[C@@H](CS)C(=O)N[C@@H](CO)C(=O)NCC(=O)NCC(=O)Nc1ccc(N)c2c1C(=O)c1ccccc1C2=O)C(C)C)C(C)C` [Compound 5761, Acetyl-Asp-Glu-Val-Val-Pro-Cys-Ser-Gly-Gly-toxin] (Ac-DEVVPCSGG-{NH(4-NH2-anthraquinon-1-yl)}), the IC50 in assay [1] (setting [6]) was 51.1 µM; in assay [2] (setting [7]), 24.4 µM; in assay [3] (setting [8]) it was over 150 µM; in assay [3] (setting [9]) it was > 150 µM and 126 µM; in assay [3] (setting [10]), > 150 µM and 88 µM; in assay [4] (setting [11]), over 150 µM. In addition, the IC50 in assay [4] (setting [12]) is over 150 µM; in assay [4] (setting [13]), 89 µM; in assay [4] (setting [14]) it was 28 µM; in assay [4] (setting [15]), 5 µM.
For the molecule `CC(=O)N[C@@H](CC(=O)O)C(=O)N[C@@H](CCC(=O)O)C(=O)N[C@@H](C)C(=O)N[C@H](C(=O)N[C@@H](CC(C)C)C(=O)N[C@@H](CS)C(=O)N[C@@H](CO)C(=O)NCC(=O)NCC(=O)Nc1ccc(N)c2c1C(=O)c1ccccc1C2=O)C(C)C` [Compound 5762, Acetyl-Asp-Glu-Ala-Val-Leu-Cys-Ser-Gly-Gly-toxin] (Ac-DEAVLCSGG-{NH(4-NH2-anthraquinon-1-yl)}), the IC50 is over 150 µM in assay [1] (setting [16]); 77 µM in assay [2] (setting [17]); over 150 µM in assay [5] (setting [17]); 46 µM in assay [3] (setting [18]); 132 µM in assay [4] (setting [19]).
As to `CC(=O)N[C@@H](CC(=O)O)C(=O)N[C@@H](CCC(=O)O)C(=O)N[C@H](C(=O)N[C@H](C(=O)N1CCC[C@H]1C(=O)N[C@@H](CS)C(=O)N[C@@H](CO)C(=O)NCC(=O)NCC(=O)Nc1ccc(N)c2c1C(=O)c1ccccc1C2=O)[C@@H](C)O)C(C)C` [Compound 5763, Acetyl-Asp-Glu-Val-Thr-Pro-Cys-Ser-Gly-Gly-toxin] (Ac-DEVTPCSGG-{NH(4-NH2-anthraquinon-1-yl)}), the IC50 was over 150 µM in assay [1] (setting [16]); 112 µM in assay [2] (setting [17]); over 150 µM in assay [5] (setting [17]); over 150 µM in assay [3] (setting [8]); 120 µM in assay [3] (setting [9]); 84 µM in assay [3] (setting [10]). The IC50 in assay [3] (setting [18]) is 131 µM; in assay [3] (setting [20]), 48 µM; in assay [3] (setting [21]) it was 17 µM; in assay [3] (setting [22]), 17 µM; in assay [4] (setting [11]) it was over 150 µM; in assay [4] (setting [12]) it was over 150 µM. Further, the IC50 in assay [4] (setting [13]) amounted to 116 µM; in assay [4] (setting [14]), 32 µM; in assay [4] (setting [15]) it was 7 µM; in assay [4] (setting [19]), 146 µM; in assay [4] (setting [23]), 6 µM.
As to `CC(=O)N[C@@H](CC(=O)O)C(=O)N[C@@H](CCC(=O)O)C(=O)N1CCC[C@H]1C(=O)N[C@@H](CC(C)C)C(=O)N[C@@H](C)C(=O)N[C@@H](CS)C(=O)N[C@@H](CO)C(=O)NCC(=O)NCC(=O)Nc1ccc(N)c2c1C(=O)c1ccccc1C2=O` [Compound 5765, Acetyl-Asp-Glu-Pro-Leu-Ala-Cys-Ser-Gly-Gly-toxin] (Ac-DEPLACSGG-{NH(4-NH2-anthraquinon-1-yl)}), the IC50 was 18 µM and 21 µM in assay [1] (setting [6]); 28 µM and 33 µM and 38 µM in assay [2] (setting [7]); 25 µM and 26 µM in assay [5] (setting [7]); 15 µM and 16 µM in assay [3] (setting [22]).
Regarding `CC[C@H](NC(=O)[C@H](CC1CCCCC1)NC(=O)[C@H](CCC(=O)O)NC(=O)[C@H](Cc1ccccc1)NC(=O)[C@H](CCC(=O)O)NC(=O)[C@H](CC(=O)O)NC(C)=O)C(=O)N[C@@H](CO)C(=O)NCC(=O)NCC(=O)Nc1ccc(N)c2c1C(=O)c1ccccc1C2=O` [Compound 5766, Acetyl-Asp-Glu-Phe-Glu-Cha-ABA-Ser-Gly-Gly-toxin] (Ac-DEFE[Cha][Abu]SGG-{NH(4-NH2-anthraquinon-1-yl)}), the IC50 stood at 24.5 µM in assay [1] (setting [6]), 10.2 µM in assay [2] (setting [7]), 5.3 µM in assay [3] (setting [22]) and 8.5 µM in assay [4] (setting [23]).
Take `CC[C@H](NC(=O)[C@H](CC(C)C)NC(=O)[C@@H](NC(=O)[C@H](C)NC(=O)[C@H](CCC(=O)O)NC(=O)[C@H](CC(=O)O)NC(C)=O)C(C)C)C(=O)N[C@@H](CO)C(=O)NCC(=O)NCC(=O)Nc1ccc(N)c2c1C(=O)c1ccccc1C2=O` [Compound 5767, Acetyl-Asp-Glu-Ala-Val-Leu-ABA-Ser-Gly-Gly-toxin] (Ac-DEAVL[Abu]SGG-{NH(4-NH2-anthraquinon-1-yl)}): the IC50 is 13.8 µM in assay [1] (setting [6]); 13.2 µM in assay [2] (setting [7]); over 150 µM in assay [3] (setting [8]); 13 µM in assay [3] (setting [9]); 11 µM in assay [3] (setting [10]); 11 µM in assay [3] (setting [20]). Also, the IC50 in assay [3] (setting [21]) is 8 µM; in assay [3] (setting [22]) it was 5.1 µM and 8 µM; in assay [4] (setting [23]) it was 8 µM.
On to `CC[C@H](NC(=O)[C@@H]1CCCN1C(=O)[C@@H](NC(=O)[C@@H](NC(=O)[C@H](CCC(=O)O)NC(=O)[C@H](CC(=O)O)NC(C)=O)C(C)C)[C@@H](C)O)C(=O)N[C@@H](CO)C(=O)NCC(=O)NCC(=O)Nc1ccc(N)c2c1C(=O)c1ccccc1C2=O` [Compound 5768, Acetyl-Asp-Glu-Val-Tbr-Pro-ABA-Ser-Gly-Gly-toxin] (Ac-DEVTP[Abu]SGG-{NH(4-NH2-anthraquinon-1-yl)}), for which the IC50 in assay [1] (setting [6]) came out at 24 µM; in assay [2] (setting [7]), 32 µM; in assay [4] (setting [23]) it was 14 µM.
